Earlier results on one substance are cited in patent publication US20130210624A1, “COMPOSITION FOR IMPROVING PLANT HEALTH AND METHOD OF APPLYING SAME” (priority 2012, published 2013).

This data set has as its system oranges. The settings on record: single prebloom foliar application; Albrigo 1999.

For phosphite, the flower number result was “increased flower number” and the yield result is given as “increased yield”.
